In ChEMBL document CHEMBL1201862, “PubChem BioAssay data set” (2004):
The source made the active and inactive calls.

Legend:
[1] = target: Peroxisome proliferator-activated receptor gamma/Nuclear receptor coactivator 2 (Homo sapiens, UniProt P37231); format: functional;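 further: agonist potency for raising coactivator recruitment to the receptor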
[2] = target: Peroxisome proliferator-activated receptor gamma/Nuclear receptor coactivator 3 (Homo sapiens, UniProt P37231); format: functional;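 further: agonist potency for raising coactivator recruitment to the receptor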
[3] = target: Peroxisome proliferator-activated receptor gamma/Nuclear receptor coactivator 1 (Homo sapiens, UniProt P37231); format: functional;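 further: agonist potency as compounds enhance coactivator SRC-1 recruitment to PPARgamma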
[4] = test system: Streptococcus sp. 'group A'; assay: growth inhibition of control SK(-) GAS strain, dose response, counter-screen for streptokinase expression inhibitor project, luminescence, kanamycin, BacTiterGlo, confirmation (AID 1900); format: functional, organism-based
[5] = cytotoxicity in HEK-293T NF-kB-Luc cells, dose response, cytotoxicity control for B/T-cell NF-kB inhibitor project, cell-based, uHTS hits (AID 489019); format: functional;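 further: IC50 reflects cytotoxicity as loss of cell viability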
BJ [6] = assay: cytotoxicity toward BJ-TERT fibroblasts, dose response, cell-based, RAS-independent, luminescence (AID 1933); format: functional; conditions: Homo sapiens
[7] = inhibitors of SNCA 5'UTR-driven reporter translation, confirmation, H4 neuroglioma cells, luminescence (AID 1988); format: functional, cell-based
BJ [8] = assay: cells; format: functional, cell-based; conditions: Homo sapiens
Jurkat = assay: antigen receptor-induced NF-kB inhibitors, dose response, Jurkat, luciferase reporter, luminescence, B- and T-cell (AID 489004); format: functional, cell-based; conditions: Homo sapiens;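 further: NF-kB luciferase reporter Jurkat cells stimulated with PMA plus ionomycin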
[9] = inhibitors of intracellular T. cruzi replication, confirmation, NIH3T3 host cells, beta-gal luminescence (AID 2044); format: functional, cell-based;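 further: intracellular parasites grown in NIH/3T3 mouse fibroblasts as host cells; luminescent beta-galactosidase reporter signal from transgenic T. cruzi replicating inside host cells; inhibitors lower the luminescence signal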
BJ [10] = assay: cytotoxicity toward BJ-TERT-LT-ST fibroblasts, dose response, cell-based, RAS-independent, luminescence (AID 1935); format: functional; conditions: Homo sapiens;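 further: BJ fibroblasts immortalized with TERT plus LT and ST oncogenes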
[11] = Luminescence Cell-Based Dose Response HTS to Identify Inhibitors of 5'UTR Stem-Loop Driven Prion Protein mRNA Translation in H4 Neuroglioblastoma Cells. [Related pubchem assays: 1827 (Project Summary), 1813 (Primary HTS)]; format: functional
[12] = C. albicans growth with fluconazole, confirmation, fluorescence, retest (AID 2467); format: functional, cell-based
cells [13] = assay: cells
[14] = inhibitors of firefly luciferase expression or activity, dose response, H4 neuroglioma cells, luminescence (AID 1990); format: functional, cell-based
Streptococcus = assay: Group A Streptococcus viability loss, dose response, counter-screen for streptokinase expression inhibitor project, luminescence, BacTiterGlo (AID 1915); format: functional, organism-based;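 further: potency for reduction of bacterial viability or growth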
[15] = cytotoxicity toward NIH3T3 fibroblasts, dose response, counter-screen, cell-based, ATP luminescence, mouse fibroblasts (AID 2010); format: functional;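 further: cells exposed to compound for about 90 hours before reading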
Streptokinase A = target: T1, Streptokinase A (Streptococcus pyogenes serotype M1, UniProt P10520); assay: S. pyogenes streptokinase expression inhibitors, potency, dose response, plasminogen activation absorbance, OD405 (AID 1914); format: functional, Streptococcus pyogenes M1 GAS;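 further: secreted streptokinase activity via plasminogen activation per viability signal from cell pellet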
T1 sequence (P10520 whole entry): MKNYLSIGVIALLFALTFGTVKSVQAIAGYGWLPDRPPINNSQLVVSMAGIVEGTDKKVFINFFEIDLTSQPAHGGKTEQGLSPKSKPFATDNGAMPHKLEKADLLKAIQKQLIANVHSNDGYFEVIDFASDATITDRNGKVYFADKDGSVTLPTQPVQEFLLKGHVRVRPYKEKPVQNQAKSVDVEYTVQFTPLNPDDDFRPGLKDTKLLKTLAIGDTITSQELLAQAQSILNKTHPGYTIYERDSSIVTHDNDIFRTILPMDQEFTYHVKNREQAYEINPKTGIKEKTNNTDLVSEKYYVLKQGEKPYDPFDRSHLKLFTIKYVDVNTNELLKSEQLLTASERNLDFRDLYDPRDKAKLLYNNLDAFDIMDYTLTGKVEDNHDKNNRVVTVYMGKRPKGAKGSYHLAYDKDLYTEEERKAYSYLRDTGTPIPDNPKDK

[16] = target: T2, Long-chain-fatty-acid--AMP ligase FadD28 (Mycobacterium tuberculosis, UniProt P9WQ59); assay: Fluorescence polarization aasay to screen for inhibitors that compete for the binding of FadD28 to a bisubstrate Measured in Biochemical System Using Plate Reader - 2147-01_Inhibitor_Dose_CherryPick_Activity.; format: functional, Mycobacterium tuberculosis H37Rv
T2 sequence (P9WQ59 whole entry): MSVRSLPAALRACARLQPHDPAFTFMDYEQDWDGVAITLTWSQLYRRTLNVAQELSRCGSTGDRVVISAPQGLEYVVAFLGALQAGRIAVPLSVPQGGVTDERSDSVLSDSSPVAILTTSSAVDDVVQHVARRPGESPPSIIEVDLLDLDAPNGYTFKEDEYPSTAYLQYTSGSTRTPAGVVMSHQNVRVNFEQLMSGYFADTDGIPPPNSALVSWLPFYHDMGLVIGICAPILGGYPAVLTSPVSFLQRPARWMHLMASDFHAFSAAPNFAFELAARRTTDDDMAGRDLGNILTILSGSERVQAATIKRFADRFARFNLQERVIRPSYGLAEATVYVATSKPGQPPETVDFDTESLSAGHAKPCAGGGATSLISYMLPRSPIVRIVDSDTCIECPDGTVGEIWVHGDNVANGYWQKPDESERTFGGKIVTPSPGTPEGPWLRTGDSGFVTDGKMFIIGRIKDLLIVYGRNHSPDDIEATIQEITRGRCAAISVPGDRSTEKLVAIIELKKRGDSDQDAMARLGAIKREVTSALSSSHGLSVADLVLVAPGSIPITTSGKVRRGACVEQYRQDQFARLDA

Nonstructural protein 1 = Nonstructural protein 1 (Influenza A virus, UniProt Q194T2); format: functional, Influenza A virus (A/California/07/2009(H1N1))
[17] = NIH-3T3 fibroblast cytotoxicity, dose response, cytotoxicity control, cell-based, fluorescence, Alamar Blue, secondary assay (AID 2327); format: functional;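 further: NIH-3T3 mouse fibroblasts cultured with fluconazole at 8 µg/mL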
[18] = microbe, parasite or virus in culture; format: functional; conditions: Mycobacterium tuberculosis
[19] = cytotoxicity toward DRD oncogenic fibroblasts, dose response, cell-based, non-viral oncogenic, luminescence (AID 1934); format: functional; conditions: Homo sapiens
P388/ADR = assay: cells; format: functional; conditions: Mus musculus
P388 = assay: cells; format: functional; conditions: Mus musculus
[20] = A cytotoxicity screen of small molecule inhibitors of the PhoP region in Salmonella typhi identified in the primary screen. [Related pubchem assays: 1850, 1864, 1985 ]; format: functional
SN12K1 = assay: cells; format: functional; conditions: Homo sapiens
[21] = A Cell Based Secondary Assay To Explore Cytotoxicity of Compounds that Sensitize Mycobacterium Tuberculosis to Beta-Lactam Antibiotics.; format: functional
Leucine aminopeptidase = target: T3, Leucine aminopeptidase (Plasmodium falciparum 3D7, UniProt Q8IL11); assay: P. falciparum M17LAP inhibitors, primary screen, biochemical, fluorogenic H-Leu-NHMec substrate, 1536-well (AID 1619); format: functional
T3 sequence (Q8IL11 whole entry): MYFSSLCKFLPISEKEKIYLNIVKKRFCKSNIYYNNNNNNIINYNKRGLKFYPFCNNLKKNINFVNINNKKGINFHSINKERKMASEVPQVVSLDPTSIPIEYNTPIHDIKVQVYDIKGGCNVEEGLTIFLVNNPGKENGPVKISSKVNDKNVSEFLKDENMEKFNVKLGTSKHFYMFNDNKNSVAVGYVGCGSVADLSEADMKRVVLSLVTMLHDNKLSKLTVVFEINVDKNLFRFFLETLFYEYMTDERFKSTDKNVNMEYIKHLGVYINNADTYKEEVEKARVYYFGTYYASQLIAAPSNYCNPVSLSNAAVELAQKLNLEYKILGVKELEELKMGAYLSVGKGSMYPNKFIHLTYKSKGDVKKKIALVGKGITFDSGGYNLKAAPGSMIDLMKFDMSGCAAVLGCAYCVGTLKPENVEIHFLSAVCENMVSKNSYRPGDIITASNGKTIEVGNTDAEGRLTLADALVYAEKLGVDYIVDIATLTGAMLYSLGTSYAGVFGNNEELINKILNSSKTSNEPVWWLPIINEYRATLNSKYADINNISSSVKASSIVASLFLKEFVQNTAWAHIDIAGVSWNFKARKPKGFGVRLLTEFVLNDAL

[22] = target: Glyceraldehyde-3-phosphate dehydrogenase (Homo sapiens, UniProt P04406)
Cytochrome P450 2C19 = Cytochrome P450 2C19 (Homo sapiens, UniProt P33261); assay: Cytochrome panel assay with activity outcomes. Panel member name: p450-cyp2c19 Compounds with AC50 equal or less than 10 uM are considered active; format: functional; conditions: read-out: AC50
[23] = target: Luciferin 4-monooxygenase (Photinus pyralis, UniProt P08659); assay: Counter Screen for Luciferase-based Assay Positives. [Related pubchem assays: 620, 618, 411 ]
HT-1080 = assay: cytotoxicity in HT1080 fibrosarcoma cells, cell-based, fluorescence readout (AID 620); format: functional; conditions: Homo sapiens
[24] = target: T4, Microphthalmia-associated transcription factor (Homo sapiens, UniProt O75030); assay: TRPM1 promoter luciferase signal decrease, dose response, MITF inhibitor project, cell-based, SK-MEL-5, cherry-picked, set 3 (AID 493073); format: functional
T4 sequence (O75030 whole entry): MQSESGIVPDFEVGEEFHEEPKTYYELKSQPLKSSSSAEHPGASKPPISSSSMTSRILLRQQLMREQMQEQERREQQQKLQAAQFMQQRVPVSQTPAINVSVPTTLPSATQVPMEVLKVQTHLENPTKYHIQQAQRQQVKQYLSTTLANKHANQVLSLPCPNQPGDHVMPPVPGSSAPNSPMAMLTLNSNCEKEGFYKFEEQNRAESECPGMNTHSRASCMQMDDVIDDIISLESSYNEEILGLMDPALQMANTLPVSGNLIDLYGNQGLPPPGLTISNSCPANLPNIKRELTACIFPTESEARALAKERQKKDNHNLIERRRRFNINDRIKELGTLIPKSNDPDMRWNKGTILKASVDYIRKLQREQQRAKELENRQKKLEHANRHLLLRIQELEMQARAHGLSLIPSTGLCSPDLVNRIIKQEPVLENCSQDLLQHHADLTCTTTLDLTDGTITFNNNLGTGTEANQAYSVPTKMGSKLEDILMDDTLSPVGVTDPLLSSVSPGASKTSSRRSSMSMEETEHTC

Cytochrome P450 2C9 = Cytochrome P450 2C9 (Homo sapiens, UniProt P11712)
Cytochrome P450 3A4 = Cytochrome P450 3A4 (Homo sapiens, UniProt P08684);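 further: CYP3A4 tested as one member of a cytochrome P450 panel screen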
[25] = luciferase reporter signal reduction – luminescence, H4-C neuroglioblastoma cells, dose response (AID 2458); format: functional, cell-based;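 further: H4 neuroglioblastoma cells stably carrying a luciferase reporter gene fusion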
[26] = inhibitors of SNCA 5'UTR-driven translation, confirmation, luminescence, H4 neuroglioblastoma cells, dose confirmation (AID 2454); format: functional, cell-based;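 further: H4 neuroglioblastoma cells carrying an alpha-synuclein 5'UTR luciferase reporter; potency for inhibition of the luciferase signal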
cells [27] = format: functional, cell-based

Luciferin 4-monooxygenase, sequence (P08659 whole entry): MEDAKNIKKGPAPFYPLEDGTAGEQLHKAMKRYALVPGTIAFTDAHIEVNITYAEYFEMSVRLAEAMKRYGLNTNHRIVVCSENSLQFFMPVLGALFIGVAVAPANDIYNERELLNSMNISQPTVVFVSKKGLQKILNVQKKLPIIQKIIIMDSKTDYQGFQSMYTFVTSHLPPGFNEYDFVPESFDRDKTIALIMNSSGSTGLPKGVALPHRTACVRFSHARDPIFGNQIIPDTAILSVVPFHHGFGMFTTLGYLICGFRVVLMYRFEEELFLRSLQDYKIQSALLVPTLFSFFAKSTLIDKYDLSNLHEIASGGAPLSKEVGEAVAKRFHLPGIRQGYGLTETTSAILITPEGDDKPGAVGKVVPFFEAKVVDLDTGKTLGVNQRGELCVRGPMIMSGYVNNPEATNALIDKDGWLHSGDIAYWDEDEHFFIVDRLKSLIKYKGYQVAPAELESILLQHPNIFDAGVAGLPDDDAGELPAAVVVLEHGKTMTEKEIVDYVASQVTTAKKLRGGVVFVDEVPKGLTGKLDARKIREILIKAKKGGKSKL
Nonstructural protein 1, sequence (Q194T2 whole entry): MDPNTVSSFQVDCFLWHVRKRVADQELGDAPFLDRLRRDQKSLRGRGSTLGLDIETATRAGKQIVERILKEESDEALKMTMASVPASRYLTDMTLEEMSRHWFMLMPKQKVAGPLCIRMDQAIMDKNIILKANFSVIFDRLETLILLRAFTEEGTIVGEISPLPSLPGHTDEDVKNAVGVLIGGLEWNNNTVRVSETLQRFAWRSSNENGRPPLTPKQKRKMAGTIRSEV
Cytochrome P450 2C9, sequence (P11712 whole entry): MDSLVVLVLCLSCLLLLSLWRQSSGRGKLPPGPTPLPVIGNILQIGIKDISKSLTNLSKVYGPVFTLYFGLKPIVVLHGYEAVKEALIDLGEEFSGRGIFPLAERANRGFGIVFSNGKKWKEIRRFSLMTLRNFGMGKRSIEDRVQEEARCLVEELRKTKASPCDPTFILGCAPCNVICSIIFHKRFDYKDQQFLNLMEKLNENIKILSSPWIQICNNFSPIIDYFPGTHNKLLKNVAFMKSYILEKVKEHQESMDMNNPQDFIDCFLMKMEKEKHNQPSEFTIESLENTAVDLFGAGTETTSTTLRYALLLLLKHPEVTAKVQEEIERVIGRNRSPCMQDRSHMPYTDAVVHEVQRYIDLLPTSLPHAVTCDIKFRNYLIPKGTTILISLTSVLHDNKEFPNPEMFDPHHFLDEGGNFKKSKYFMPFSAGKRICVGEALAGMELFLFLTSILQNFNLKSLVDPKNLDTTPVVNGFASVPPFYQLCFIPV
Cytochrome P450 3A4, sequence (P08684 whole entry, the tested form may be a part): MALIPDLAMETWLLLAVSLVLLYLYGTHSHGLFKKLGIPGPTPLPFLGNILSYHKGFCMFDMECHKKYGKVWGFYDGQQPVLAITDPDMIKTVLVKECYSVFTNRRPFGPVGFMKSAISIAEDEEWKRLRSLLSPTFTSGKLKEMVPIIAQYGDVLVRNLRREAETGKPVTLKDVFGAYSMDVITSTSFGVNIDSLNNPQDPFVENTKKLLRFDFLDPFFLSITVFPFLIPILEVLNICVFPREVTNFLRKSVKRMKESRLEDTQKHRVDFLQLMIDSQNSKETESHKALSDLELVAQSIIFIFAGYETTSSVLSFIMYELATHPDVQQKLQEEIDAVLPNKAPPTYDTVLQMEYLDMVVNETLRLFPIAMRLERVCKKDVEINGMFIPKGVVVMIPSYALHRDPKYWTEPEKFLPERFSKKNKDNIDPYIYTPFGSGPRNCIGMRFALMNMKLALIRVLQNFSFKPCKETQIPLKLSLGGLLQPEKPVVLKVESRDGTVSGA
Glyceraldehyde-3-phosphate dehydrogenase, sequence (P04406 whole entry): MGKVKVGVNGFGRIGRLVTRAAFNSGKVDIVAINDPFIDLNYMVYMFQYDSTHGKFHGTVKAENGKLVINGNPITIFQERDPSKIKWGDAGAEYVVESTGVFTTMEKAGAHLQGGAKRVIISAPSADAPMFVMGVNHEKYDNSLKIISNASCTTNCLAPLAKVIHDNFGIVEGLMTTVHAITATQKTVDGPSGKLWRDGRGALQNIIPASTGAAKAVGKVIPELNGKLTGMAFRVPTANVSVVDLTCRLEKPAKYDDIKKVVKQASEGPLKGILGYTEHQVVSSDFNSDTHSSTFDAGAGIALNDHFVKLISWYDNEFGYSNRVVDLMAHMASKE
Cytochrome P450 2C19, sequence (P33261 whole entry): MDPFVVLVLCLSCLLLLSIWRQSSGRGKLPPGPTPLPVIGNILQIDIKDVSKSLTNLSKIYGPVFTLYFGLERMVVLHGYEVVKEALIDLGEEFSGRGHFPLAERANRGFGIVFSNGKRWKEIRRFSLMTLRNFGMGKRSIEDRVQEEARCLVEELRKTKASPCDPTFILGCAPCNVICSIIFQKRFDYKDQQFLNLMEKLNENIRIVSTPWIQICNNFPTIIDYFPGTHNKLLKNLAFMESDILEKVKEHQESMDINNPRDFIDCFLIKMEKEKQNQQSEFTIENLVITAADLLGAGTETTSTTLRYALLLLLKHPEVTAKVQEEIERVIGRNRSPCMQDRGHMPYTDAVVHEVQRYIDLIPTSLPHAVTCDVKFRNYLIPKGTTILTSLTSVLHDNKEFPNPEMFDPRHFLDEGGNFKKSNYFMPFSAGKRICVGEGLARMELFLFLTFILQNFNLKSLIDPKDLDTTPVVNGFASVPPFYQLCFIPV
Peroxisome proliferator-activated receptor gamma/Nuclear receptor coactivator 1, sequence (P37231 whole entry): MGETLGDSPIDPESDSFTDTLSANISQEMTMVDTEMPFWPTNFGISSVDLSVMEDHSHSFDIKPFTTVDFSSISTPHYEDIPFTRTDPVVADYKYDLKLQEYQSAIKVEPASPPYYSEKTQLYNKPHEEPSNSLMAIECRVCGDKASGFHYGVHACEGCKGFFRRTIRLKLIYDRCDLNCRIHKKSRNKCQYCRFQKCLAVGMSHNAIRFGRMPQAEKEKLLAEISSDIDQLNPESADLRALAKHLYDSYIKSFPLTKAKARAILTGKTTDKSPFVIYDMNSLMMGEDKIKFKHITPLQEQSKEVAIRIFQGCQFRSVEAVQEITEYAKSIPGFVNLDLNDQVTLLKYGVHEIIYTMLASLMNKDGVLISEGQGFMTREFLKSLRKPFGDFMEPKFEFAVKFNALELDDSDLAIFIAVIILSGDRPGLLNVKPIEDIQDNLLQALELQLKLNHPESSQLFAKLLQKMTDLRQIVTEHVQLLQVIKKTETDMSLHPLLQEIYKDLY
Peroxisome proliferator-activated receptor gamma/Nuclear receptor coactivator 1, sequence (Q15788 whole entry, further chain): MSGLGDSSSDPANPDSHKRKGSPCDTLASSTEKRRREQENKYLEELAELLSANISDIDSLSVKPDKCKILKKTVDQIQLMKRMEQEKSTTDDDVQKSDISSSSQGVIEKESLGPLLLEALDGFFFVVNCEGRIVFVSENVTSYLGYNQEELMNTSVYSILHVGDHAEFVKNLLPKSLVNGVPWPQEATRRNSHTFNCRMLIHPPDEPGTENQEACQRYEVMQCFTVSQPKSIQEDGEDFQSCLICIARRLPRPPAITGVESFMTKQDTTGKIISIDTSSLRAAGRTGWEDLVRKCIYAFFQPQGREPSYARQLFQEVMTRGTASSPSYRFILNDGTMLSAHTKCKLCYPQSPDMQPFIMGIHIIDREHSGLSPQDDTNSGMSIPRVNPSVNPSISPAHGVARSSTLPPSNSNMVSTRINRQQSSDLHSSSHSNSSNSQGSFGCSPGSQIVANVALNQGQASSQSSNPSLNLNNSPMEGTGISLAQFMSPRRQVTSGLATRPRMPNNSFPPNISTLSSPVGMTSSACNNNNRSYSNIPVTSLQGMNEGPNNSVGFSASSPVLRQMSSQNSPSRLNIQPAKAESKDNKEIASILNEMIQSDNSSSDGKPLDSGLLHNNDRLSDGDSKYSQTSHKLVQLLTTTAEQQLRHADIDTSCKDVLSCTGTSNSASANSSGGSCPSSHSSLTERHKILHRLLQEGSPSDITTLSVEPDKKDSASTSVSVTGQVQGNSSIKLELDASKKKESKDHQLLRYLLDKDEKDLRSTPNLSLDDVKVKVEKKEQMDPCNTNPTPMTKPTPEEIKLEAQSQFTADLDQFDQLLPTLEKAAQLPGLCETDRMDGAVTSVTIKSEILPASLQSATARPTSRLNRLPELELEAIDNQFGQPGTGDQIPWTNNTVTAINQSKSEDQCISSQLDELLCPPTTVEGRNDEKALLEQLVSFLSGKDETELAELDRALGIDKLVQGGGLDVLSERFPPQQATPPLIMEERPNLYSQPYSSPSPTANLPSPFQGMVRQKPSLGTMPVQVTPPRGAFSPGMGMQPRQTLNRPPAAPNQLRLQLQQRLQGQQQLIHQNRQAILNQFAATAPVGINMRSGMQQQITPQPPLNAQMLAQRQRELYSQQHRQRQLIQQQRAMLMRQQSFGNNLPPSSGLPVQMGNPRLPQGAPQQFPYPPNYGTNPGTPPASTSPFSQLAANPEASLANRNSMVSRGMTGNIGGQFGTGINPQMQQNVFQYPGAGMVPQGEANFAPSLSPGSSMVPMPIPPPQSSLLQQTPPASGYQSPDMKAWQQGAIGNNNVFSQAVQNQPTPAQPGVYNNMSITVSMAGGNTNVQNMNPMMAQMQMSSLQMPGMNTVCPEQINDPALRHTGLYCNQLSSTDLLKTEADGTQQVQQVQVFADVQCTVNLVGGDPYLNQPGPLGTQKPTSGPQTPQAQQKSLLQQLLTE

SMILES: C=CCNC(=O)c1ccc(-c2nc(-c3ccc(Cl)cc3Cl)cs2)cc1
- EC50 [1]: 10.2 µM (not active)
- EC50 [2]: 10.9 µM (not active)
- EC50 [3]: 17.1 µM (not active)

SMILES: C[n+]1c(-c2ccccc2)c2cc(N)ccc2c2ccc(N)cc21
- EC50 [4]: 1.29 µM (active)
- IC50 [5]: > 80 µM (inactive)
- EC50 (BJ [6]): 3.61 µM (active)
- EC50 [7]: 9.48 µM (active)
- EC50 (BJ [8]): 6.25 µM (active)
- IC50 (Jurkat): > 80 µM (inactive)
- EC50 [9]: < 0.1 µM (active)
- EC50 (BJ [10]): 10.5 µM (active)
- EC50 [11]: 20.1 µM (active)
- EC50 [12]: 0.121 µM (active)
- EC50 (cells [13]): 0.011 µM (active)
- EC50 [14]: > 120 µM (not active)
- EC50 (Streptococcus): 5.67 µM (active)
- EC50 [15]: 12.3 µM (active)
- EC50 (Streptokinase A): > 150 µM (not active)
- AC50 [16]: > 100 µM (inactive)
- IC50 (Nonstructural protein 1): 30.5 µM (active)
- EC50 [17]: > 160 µM (inconclusive)
- CC50 [18]: > 40 µM (active)
- EC50 [19]: 7.32 µM (active)

SMILES: O=C1NC(=S)NC(=O)C1=C(O)Nc1ccccc1
- GI50 (P388/ADR): 25.2 µM (inactive)
- GI50 (P388): 16.7 µM (inactive)
- EC50 [20]: > 50 µM (active)
- GI50 (SN12K1): 15 µM (inactive)

SMILES: CCOC(=O)/C(=N\Nc1ccccc1)c1csc(Nc2ccc(C)cc2)n1
- CC50 [21]: 31.3 µM (active)
- EC50 [9]: 2.13 µM (active)
- EC50 [15]: > 30 µM (not active)

SMILES: COc1ccc(/C(C)=C2/SC(=S)N(CCC(=O)O)C2=O)cc1
- IC50 (Leucine aminopeptidase): 27.4 µM (active)

SMILES: COc1ccc(-c2nc3cc(NC(=O)Cc4ccc(OC)c(OC)c4)ccc3o2)cc1
- EC50 [20]: > 50 µM (active)

SMILES: CCOc1ccc(-c2cc(CCCC(=O)Nc3cc(OC)ccc3OC)no2)cc1
- IC50 [22]: > 100 µM (not active)
- EC50 [7]: 11.9 µM (active)
- AC50 (Cytochrome P450 2C19): 3.16 µM (inconclusive)
- EC50 [11]: 26.9 µM (active)
- EC50 [14]: 13 µM (active)
- EC50 [23]: 18.8 µM (active)
- EC50 (HT-1080): > 50 µM (not active)

SMILES: O=C1C2ON(c3ccc(Br)cc3)C(c3cccnc3)C2C(=O)N1C1CCCCC1 (stereo unspecified)
- CC50 [21]: 37.9 µM (active)

SMILES: CC(C)[C@H](Nc1nc(-c2ccccc2)nc2c1oc1ccccc12)C(=O)O
- IC50 (Leucine aminopeptidase): 25.2 µM (active)

SMILES: O=C(N/N=C/c1ccc([N+](=O)[O-])s1)c1ccccc1Br
- AC50 [24]: 3.65 µM (active)
- AC50 (Cytochrome P450 2C9): 39.8 µM (inconclusive)
- AC50 (Cytochrome P450 3A4): 22.4 µM (inconclusive)
- EC50 [23]: 0.24 µM (active)
- EC50 (HT-1080): > 50 µM (not active)

SMILES: COC(=O)Cc1ccc(NC(=O)c2ccc(C(C)(C)C)cc2)cc1
- IC50 [5]: 78.9 µM (inactive)
- EC50 [7]: < 0.1 µM (active)
- IC50 (Jurkat): 0.19 µM (active)
- EC50 [11]: < 0.1 µM (active)
- EC50 [25]: 0.067 µM (active)
- EC50 [14]: < 0.1 µM (active)
- EC50 [23]: 1.8 µM (active)
- EC50 (HT-1080): > 50 µM (not active)
- EC50 [26]: 0.161 µM (active)
- EC50 (cells [27]): 0.263 µM (active)
